Results from US8952024B2, “Herbicidal pyrimidone derivatives” (E I du Pont de Nemours and Company, priority 2009, dated 2015).

Key:
Format in all cases: in vivo
[1] = test system: green foxtail (Setaria viridis); test: Test B pre-/postemergence plant response; conditions: Postemergence
How it was run: (§1)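 Each species received compound formulated in non-phytotoxic solvent with surfactant, either at planting into a loam and sand blend or as a foliar spray once plants reached 2 to 18 cm in peat-based medium. Plants stayed in the greenhouse 13 to 15 days before visual evaluation against controls, scored 0 (no effect) to 100 (complete control).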

wild oat (Avena fatua) = test: Test B pre-/postemergence plant response; conditions: Postemergence
How it was run: as §1

[2] = test system: morningglory (Ipomoea coccinea); test: Test B pre-/postemergence plant response; conditions: Postemergence
How it was run: as §1

[3] = test system: large crabgrass (Digitaria sanguinalis); test: Test B pre-/postemergence plant response; conditions: Postemergence
How it was run: as §1

[4] = test system: bermudagrass (Cynodon dactylon); test: Test B pre-/postemergence plant response; conditions: Postemergence
How it was run: as §1

[5] = test system: wheat (Triticum aestivum); test: Test B pre-/postemergence plant response
How it was run: as §1

[6] = test system: lambsquarters (Chenopodium album); test: Test B pre-/postemergence plant response; conditions: Postemergence
How it was run: as §1

[7] = test system: yellow nutsedge (Cyperus esculentus); test: Test B pre-/postemergence plant response; conditions: Postemergence
How it was run: as §1

[8] = test system: goosegrass (Eleusine indica); test: Test B pre-/postemergence plant response; conditions: Postemergence
How it was run: as §1

[9] = test system: cocklebur (Xanthium strumarium); test: Test B pre-/postemergence plant response; conditions: Postemergence
How it was run: as §1

[10] = test system: umbrella sedge (Cyperus difformis); test: Test B flooded paddy test; conditions: for Plant response rating, Flood, Sedge, Umbrella: 250 g ai/ha, flooded paddy test, visual rating on 0 to 100 scale (0 no effect, 100 complete control) after 13 to 15 days; for Plant response rating, Sedge, Umbrella: Flood (flooded paddy test), 13 to 15 days
How it was run: (§2)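 Each compound is added to standing floodwater (3 cm above soil, maintained) in pots of 2-leaf-stage plants; greenhouse exposure lasts 13–15 d before visual comparison with controls on a 0–100 control scale.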

[11] = test system: barnyardgrass (Echinochloa crus-galli); test: Test B flooded paddy test; conditions: for Plant response rating, Flood, Barnyardgrass: 250 g ai/ha, flooded paddy test, visual rating on 0 to 100 scale (0 no effect, 100 complete control) after 13 to 15 days; for Plant response rating, Barnyardgrass: Flood (flooded paddy test), 13 to 15 days
How it was run: as §2

[12] = 31 g ai/ha, scale 0 to 100 (0 no effect, 100 complete control)
[13] = 62 g ai/ha, scale 0 (no effect) to 100 (complete control), 13 to 15 days
[14] = 125 g ai/ha, visual rating after 13 to 15 days, scale 0 (no effect) to 100 (complete control)
[15] = 31 g ai/ha, scale of 0 to 100 where 0 is no effect and 100 is complete control
[16] = 62 g ai/ha, scale 0 to 100, 0 is no effect, 100 is complete control
[17] = 125 g ai/ha, scale 0 to 100, 0 is no effect, 100 is complete control
[18] = 31 g ai/ha, 0 to 100 scale (0 no effect, 100 complete control)
[19] = 62 g ai/ha, scale 0 to 100 (0 no effect, 100 complete control)
[20] = 125 g ai/ha, scale 0 to 100 (0 no effect, 100 complete control)
[21] = 250 g ai/ha, scale 0 to 100 (0 no effect, 100 complete control), 13 to 15 days
[22] = 62 g ai/ha, scale of 0 to 100 where 0 is no effect and 100 is complete control
[23] = Flood, 31 g ai/ha, scale 0 to 100 (0 no effect, 100 complete control)

5-[(2-hydroxy-6-oxo-1-cyclohexen-1-yl)carbonyl]-2,3-diphenyl-4(3H)-pyrimidinone [Compound 2]
Plant response rating, Foxtail, Green [1, 12]: 5 | Plant response rating, Foxtail, Green [1, 13]: 10 | Plant response rating, Foxtail, Green [1, 14]: 30 | Foxtail, Green plant response rating ([1]; 250 g ai/ha, scale 0 to 100): 40 | Plant response rating, Oat, Wild (wild oat (Avena fatua); [12]): 5 | Plant response rating, Oat, Wild (wild oat (Avena fatua); [13]): 5 | Plant response rating, Oat, Wild (wild oat (Avena fatua); [14]): 10 | Oat, Wild plant response rating (wild oat (Avena fatua); 250 g ai/ha, scale 0 to 100): 10 | Plant response rating, Morningglory [2, 12]: 0 | Plant response rating, Morningglory [2, 13]: 20 | Plant response rating, Morningglory [2, 14]: 45 | Morningglory plant response rating ([2]; 250 g ai/ha, scale 0 to 100): 65 | Plant response rating, Crabgrass, Large [3, 12]: 40 | Plant response rating, Crabgrass, Large [3, 13]: 50 | Plant response rating, Crabgrass, Large [3, 14]: 55 | Crabgrass, Large plant response rating ([3]; 250 g ai/ha, scale 0 to 100): 65 | Plant response rating, Bermudagrass [4, 12]: 40 | Plant response rating, Bermudagrass [4, 13]: 50 | Plant response rating, Bermudagrass ([4]; 125 g ai/ha, scale 0 to 100 (0 no effect, 100 complete control), 13 to 15 days): 60 | Bermudagrass plant response rating ([4]; 250 g ai/ha, scale 0 to 100): 65 | Plant response rating, Wheat ([5]; Postemergence, 31 g ai/ha, scale 0 to 100 (0 no effect, 100 complete control)): 0 | Plant response rating, Wheat ([5]; Postemergence, 62 g ai/ha, scale 0 (no effect) to 100 (complete control), 13 to 15 days): 0 | Plant response rating, Wheat ([5]; Postemergence, 125 g ai/ha, visual rating after 13 to 15 days, scale 0 (no effect) to 100 (complete control)): 0 | Wheat plant response rating ([5]; Postemergence, 250 g ai/ha, scale 0 to 100): 5 | Wheat plant response rating (0 to 100 scale) ([5]; Preemergence, 0 is no effect, 100 is complete control, rated after 13 to 15 days, application rate of this section not shown): 0 | Plant response rating, Lambsquarters [6, 12]: 70 | Plant response rating, Lambsquarters [6, 13]: 75 | Plant response rating, Lambsquarters [6, 14]: 90 | Lambsquarters plant response rating ([6]; 250 g ai/ha, scale 0 to 100): 90 | Plant response rating, Nutsedge, Yellow [7, 12]: 15 | Plant response rating, Nutsedge, Yellow [7, 13]: 20 | Plant response rating, Nutsedge, Yellow [7, 14]: 20 | Nutsedge, Yellow plant response rating ([7]; 250 g ai/ha, scale 0 to 100): 45 | Plant response rating, Goosegrass [8, 12]: 60 | Plant response rating, Goosegrass [8, 13]: 60 | Plant response rating, Goosegrass [8, 14]: 65 | Goosegrass plant response rating ([8]; 250 g ai/ha, scale 0 to 100): 80 | Plant response rating, Cocklebur [9, 12]: 65 | Plant response rating, Cocklebur [9, 13]: 65 | Plant response rating, Cocklebur [9, 14]: 70 | Cocklebur plant response rating ([9]; 250 g ai/ha, scale 0 to 100): 85 | Plant response rating, Flood, Sedge, Umbrella [10]: 0 | Plant response rating, Sedge, Umbrella [10, 15]: 0 | Plant response rating, Sedge, Umbrella [10, 16]: 0 | Plant response rating, Sedge, Umbrella [10, 17]: 0 | Plant response rating, Flood, Barnyardgrass [11]: 0 | Plant response rating, Barnyardgrass [11, 15]: 0 | Plant response rating, Barnyardgrass [11, 16]: 0 | Plant response rating, Barnyardgrass [11, 17]: 0

Cc1cc(-n2c(-c3cccc(F)c3)ncc(C(=O)C3=C(O)CCCC3=O)c2=O)ccc1F [Compound 191]
Plant response rating, Foxtail, Green [1, 18]: 40 | Plant response rating, Foxtail, Green [1, 19]: 55 | Plant response rating, Foxtail, Green [1, 20]: 80 | Plant response rating, Foxtail, Green [1, 21]: 98 | Plant response rating, Oat, Wild (wild oat (Avena fatua); [18]): 50 | Plant response rating, Oat, Wild (wild oat (Avena fatua); [19]): 60 | Plant response rating, Oat, Wild (wild oat (Avena fatua); [20]): 70 | Plant response rating, Oat, Wild (wild oat (Avena fatua); [21]): 80 | Plant response rating, Morningglory [2, 18]: 40 | Plant response rating, Morningglory [2, 19]: 65 | Plant response rating, Morningglory [2, 20]: 90 | Plant response rating, Morningglory [2, 21]: 100 | Plant response rating, Crabgrass, Large [3, 18]: 85 | Plant response rating, Crabgrass, Large [3, 19]: 100 | Plant response rating, Crabgrass, Large [3, 20]: 100 | Plant response rating, Crabgrass, Large [3, 21]: 100 | Plant response rating, Bermudagrass [4, 18]: 100 | Plant response rating, Bermudagrass [4, 19]: 100 | Plant response rating, Bermudagrass [4, 20]: 100 | Plant response rating, Bermudagrass [4, 21]: 100 | Plant response rating, Wheat ([5]; Postemergence, 31 g ai/ha, 0 to 100 scale (0 no effect, 100 complete control)): 35 | Plant response rating, Wheat ([5]; Postemergence, 62 g ai/ha, scale 0 to 100 (0 no effect, 100 complete control)): 40 | Plant response rating, Wheat ([5]; Postemergence, 125 g ai/ha, scale 0 to 100 (0 no effect, 100 complete control)): 55 | Plant response rating, Wheat ([5]; Postemergence, 250 g ai/ha, scale 0 to 100 (0 no effect, 100 complete control), 13 to 15 days): 65 | Plant response rating, Lambsquarters [6, 18]: 75 | Plant response rating, Lambsquarters [6, 19]: 80 | Plant response rating, Lambsquarters [6, 20]: 98 | Plant response rating, Lambsquarters [6, 21]: 100 | Plant response rating, Nutsedge, Yellow [7, 18]: 40 | Plant response rating, Nutsedge, Yellow [7, 19]: 40 | Plant response rating, Nutsedge, Yellow [7, 20]: 55 | Plant response rating, Nutsedge, Yellow [7, 21]: 70 | Plant response rating, Goosegrass [8, 18]: 95 | Plant response rating, Goosegrass [8, 19]: 98 | Plant response rating, Goosegrass [8, 20]: 100 | Plant response rating, Goosegrass [8, 21]: 100 | Plant response rating, Cocklebur [9, 18]: 90 | Plant response rating, Cocklebur [9, 19]: 98 | Plant response rating, Cocklebur [9, 20]: 98 | Plant response rating, Cocklebur [9, 21]: 100 | Plant response rating, Flood, Sedge, Umbrella [10]: 85 | Plant response rating, Sedge, Umbrella [10, 22]: 75 | Plant response rating, Sedge, Umbrella [10, 17]: 80 | Sedge, Umbrella plant response rating [10, 23]: 60 | Plant response rating, Flood, Barnyardgrass [11]: 25 | Plant response rating, Barnyardgrass [11, 22]: 0 | Plant response rating, Barnyardgrass [11, 17]: 0 | Barnyardgrass plant response rating [11, 23]: 0
